Laboratory results published in ChEMBL document CHEMBL4680208, “Sulfone derivatives enter the cytoplasm of Candida albicans sessile cells” (Eur J Med Chem, 2020).
Converted amounts (≈) assume the structure as drawn. The source made the active and inactive calls. The rule behind the calls is not given here.

How the values were obtained:
[1] = Induction of adhesive activity against Candida albicans assessed as increase in […] adhesion to human TR146 cells at 4 ug/ml incubated for 2 hrs prior to cell infection and measured after 2 hrs by colony counting method relative to control; assay type: cell-based; settings: tr146, 4 h, dose 4 µg/ml
[2] = Cytotoxicity against human MRC5 cells by CellTiter 96 Aqueous One Solution Reagent based assay; assay type: cell-based
Candida albicans [3] = assay: Antifungal activity against Candida albicans 90028 assessed as fungal growth inhibition at 2 ug/ml measured after 48 hrs by microdilution method relative to control; assay type: functional; settings: read-out: GI
Candida albicans [4] = assay: Antifungal activity against Candida albicans 90028 assessed as fungal growth inhibition at 0.0625 ug/ml measured after 18 hrs by microdilution method relative to control; assay type: functional; settings: read-out: GI
Candida albicans [5] = assay: Antifungal activity against Candida albicans 90028 assessed as fungal growth inhibition at 0.0625 ug/ml measured after 48 hrs by microdilution method relative to control; assay type: functional; settings: read-out: GI
Candida albicans [6] = assay: Antifungal activity against Candida albicans 90028 assessed as fungal growth inhibition at 0.5 ug/ml measured after 48 hrs by microdilution method relative to control; assay type: functional; settings: read-out: GI
[7] = Toxicity in Galleria mellonella larvae assessed as survival at 16 ug/ml relative to control; settings: at 16 µg/mL
Candida albicans [8] = assay: Antifungal activity against Candida albicans 90028 assessed as fungal growth inhibition at 0.5 ug/ml measured after 18 hrs by microdilution method relative to control; assay type: functional; settings: read-out: GI
Candida albicans [9] = assay: Antifungal activity against Candida albicans 90028 assessed as fungal growth inhibition at 1 ug/ml measured after 18 hrs by microdilution method relative to control; assay type: functional; settings: read-out: GI
Candida albicans [10] = assay: Antifungal activity against Candida albicans 90028 assessed as fungal growth inhibition at 16 ug/ml measured after 18 hrs by microdilution method relative to control; assay type: functional; settings: read-out: GI
Candida albicans [11] = assay: Antifungal activity against Candida albicans 90028 assessed as fungal growth inhibition at 0.125 ug/ml measured after 48 hrs by microdilution method relative to control; assay type: functional; settings: read-out: GI
Candida albicans [12] = assay: Antifungal activity against Candida albicans 90028 assessed as fungal growth inhibition measured after 48 hrs by microdilution method; assay type: functional
Candida albicans [13] = assay: Antifungal activity against Candida albicans 90028 assessed as fungal growth inhibition at 0.25 ug/ml measured after 18 hrs by microdilution method relative to control; assay type: functional; settings: read-out: GI
Candida albicans [14] = assay: Antifungal activity against Candida albicans 90028 assessed as fungal growth inhibition at 2 ug/ml measured after 18 hrs by microdilution method relative to control; assay type: functional; settings: read-out: GI
Candida albicans [15] = assay: Fungicidal activity against Candida albicans 90028 preincubated for 48 hrs followed by plating on SD agar and measured after 48 hrs; assay type: functional; settings: time 96 hrs
[16] = Cytotoxicity against African green monkey Vero cells by XTT assay; assay type: cell-based; settings: chlorocebus sabaeus
Candida albicans [17] = assay: Antifungal activity against Candida albicans 90028 assessed as fungal growth inhibition at 4 ug/ml measured after 18 hrs by microdilution method relative to control; assay type: functional; settings: read-out: GI
Candida albicans [18] = assay: Antifungal activity against Candida albicans 90028 assessed as fungal growth inhibition at 0.25 ug/ml measured after 48 hrs by microdilution method relative to control; assay type: functional; settings: read-out: GI
Candida albicans [19] = assay: Antifungal activity against Candida albicans 90028 assessed as fungal growth inhibition at 8 ug/ml measured after 48 hrs by microdilution method relative to control; assay type: functional; settings: read-out: GI
Candida albicans [20] = assay: Antifungal activity against Candida albicans 90028 assessed as fungal growth inhibition at 0.125 ug/ml measured after 18 hrs by microdilution method relative to control; assay type: functional; settings: read-out: GI
Candida albicans [21] = assay: Antibiofilm activity against Candida albicans 90028 assessed as increasing in cell killing by XTT assay; assay type: functional
Vero [22] = assay: Cytotoxicity against African green monkey Vero cells at 0.25 to 16 ug/ml by XTT assay relative to control; assay type: cell-based; settings: chlorocebus sabaeus, at 0.25 to 16 µg/mL, dose 0.25-16 µg/ml
Candida albicans [23] = assay: Antifungal activity against Candida albicans 90028 assessed as fungal growth inhibition at 1 ug/ml measured after 48 hrs by microdilution method relative to control; assay type: functional; settings: read-out: GI
Candida albicans [24] = assay: Antifungal activity against Candida albicans 90028 assessed as fungal growth inhibition at 0.0313 ug/ml measured after 48 hrs by microdilution method relative to control; assay type: functional; settings: read-out: GI
Candida albicans [25] = assay: Induction of plasma membrane disruption in Candida albicans assessed as accidental type cell death at 8 ug/ml measured after 18 hrs by Annexin V-FITC/propidium iodide staining based flow cytometry (reference value: 1.74 +/- 1.37%); settings: dose 8.0 µg/ml
Candida albicans [26] = assay: Antifungal activity against Candida albicans 90028 infected in Galleria mellonella larvae at 16 ug/ml by H and E staining based histological analysis; assay type: functional, organism-based; settings: dose 16.0 µg/ml
Candida albicans [27] = assay: Antifungal activity against Candida albicans 90028 assessed as fungal growth inhibition at 0.0313 ug/ml measured after 18 hrs by microdilution method relative to control; assay type: functional; settings: read-out: GI
Candida albicans [28] = assay: Antifungal activity against Candida albicans 90028 assessed as fungal growth inhibition at 8 ug/ml measured after 18 hrs by microdilution method relative to control; assay type: functional; settings: read-out: GI
Candida albicans [29] = assay: Antifungal activity against Candida albicans 90028 assessed as fungal growth inhibition at 4 ug/ml measured after 48 hrs by microdilution method relative to control; assay type: functional; settings: read-out: GI
Candida albicans [30] = assay: Antifungal activity against Candida albicans 90028 assessed as fungal growth inhibition at 16 ug/ml measured after 48 hrs by microdilution method relative to control; assay type: functional; settings: read-out: GI
Candida albicans [31] = assay: Antibiofilm activity against Candida albicans 90028 assessed as cell killing at 256 ug/ml by XTT assay relative to control; assay type: functional; settings: dose 256 µg/ml
Candida albicans [32] = assay: Anti-adhesive activity against Candida albicans assessed as reduction in […] adhesion to human TR146 cells at 8 ug/ml incubated for 2 hrs prior to cell infection and measured after 2 hrs by colony counting method relative to control; assay type: functional; parameters: scale not given: the % may be the effect or the level left; settings: dose 8 µg/ml; time 4 hrs
[33] = Cytotoxicity against human TR146 cells assessed as induction of lysosomal membrane permeabilization at 16 ug/ml measured after 18 hrs by AO/propidium iodide staining based confocal laser scanning microscopy; assay type: cell-based; settings: tr146, 18 h, dose 16 µg/ml
Candida albicans [34] = assay: Antifungal activity against Candida albicans 90028 infected in Galleria mellonella larvae assessed as increase in larvae survival at MFC measured 96 hrs post-infection relative to control; assay type: functional
Candida albicans [35] = assay: Antibiofilm activity against Candida albicans 90028 assessed as cell killing at 128 ug/ml by XTT assay relative to control; assay type: functional; settings: dose 128 µg/ml
Vero [36] = assay: Cytotoxicity against African green monkey Vero cells at 0.25 to 8 ug/ml after 18 hrs by XTT assay relative to control; assay type: cell-based; settings: chlorocebus sabaeus, at 0.25 to 8 µg/mL, dose 0.25-8 µg/ml
Candida albicans [37] = assay: Anti-adhesive activity against Candida albicans assessed as reduction in […] adhesion to human TR146 cells at 4 ug/ml incubated for 2 hrs prior to cell infection and measured after 2 hrs by colony counting method relative to control; assay type: functional; parameters: scale not given: the % may be the effect or the level left; settings: dose 4 µg/ml; time 4 hrs
Candida albicans [38] = assay: Induction of morphological changes in Candida albicans biofilm infected in human TR146 cells at 16 ug/ml measured after 20 hrs by fluorescence microscopy based QCM-D analysis; assay type: functional, organism-based; settings: dose 16.0 µg/ml
[39] = Induction of adhesive activity against Candida albicans assessed as increase in […] adhesion to human TR146 cells at 2 ug/ml incubated for 2 hrs prior to cell infection and measured after 2 hrs by colony counting method relative to control; assay type: cell-based; settings: tr146, 4 h, dose 2 µg/ml
Candida albicans [40] = assay: Induction of plasma membrane disruption in Candida albicans assessed as accidental type cell death at 4 ug/ml measured after 18 hrs by Annexin V-FITC/propidium iodide staining based flow cytometry (reference value: 1.74 +/- 1.37%); settings: dose 4.0 µg/ml
Candida albicans [41] = assay: Antifungal activity against Candida albicans 90028 infected in Galleria mellonella larvae at 4 ug/ml by H and E staining based histological analysis; assay type: functional, organism-based; settings: dose 4.0 µg/ml
Vero [42] = assay: Cytotoxicity against African green monkey Vero cells at 0.25 to 512 ug/ml by XTT assay relative to control; assay type: cell-based; settings: chlorocebus sabaeus, at 0.25 to 512 µg/mL, dose 0.25-512 µg/ml
Candida albicans [43] = assay: Anti-adhesive activity against Candida albicans assessed as reduction in […] adhesion to human TR146 cells at 0.25 ug/ml incubated for 2 hrs prior to cell infection and measured after 2 hrs by colony counting method relative to control; assay type: functional; parameters: scale not given: the % may be the effect or the level left; settings: dose 0.25 µg/ml; time 4 hrs
Candida albicans [44] = assay: Induction of plasma membrane disruption in Candida albicans assessed as accidental type cell death at 0.25 ug/ml measured after 18 hrs by Annexin V-FITC/propidium iodide staining based flow cytometry (reference value: 1.74 +/- 1.37%); settings: dose 0.25 µg/ml
[45] = Induction of adhesive activity against Candida albicans assessed as increase in […] adhesion to human TR146 cells at 0.125 ug/ml incubated for 2 hrs prior to cell infection and measured after 2 hrs by colony counting method relative to control; assay type: cell-based; settings: tr146, 2 h, dose 0.125 µg/ml

Row | SMILES | CC50 [2] [µg/mL] | inhibition of growth at 2 µg/mL (Candida albicans [3]) [%] | inhibition of growth at 0.0625 µg/mL (Candida albicans [4]) [%] | inhibition of growth at 0.0625 µg/mL (Candida albicans [5]) [%] | inhibition of growth at 0.5 µg/mL (Candida albicans [6]) [%] | survival [7] [%] | inhibition of growth at 0.5 µg/mL (Candida albicans [8]) [%] | inhibition of growth at 1 µg/mL (Candida albicans [9]) [%] | inhibition of growth at 16 µg/mL (Candida albicans [10]) [%] | inhibition of growth at 0.125 µg/mL (Candida albicans [11]) [%] | inhibition of growth at 0.25 µg/mL (Candida albicans [13]) [%] | inhibition of growth at 2 µg/mL (Candida albicans [14]) [%] | MFC (Candida albicans [15]) [µg/mL] | inhibition of growth at 4 µg/mL (Candida albicans [17]) [%] | inhibition of growth at 0.25 µg/mL (Candida albicans [18]) [%] | inhibition of growth at 8 µg/mL (Candida albicans [19]) [%] | inhibition of growth at 0.125 µg/mL (Candida albicans [20]) [%] | CC50 (Candida albicans [21]) [µg/mL] | inhibition of growth at 1 µg/mL (Candida albicans [23]) [%] | inhibition of growth at 0.0313 µg/mL (Candida albicans [24]) [%] | other results
1 | NNc1ccc(S(=O)(=O)C(F)(F)I)cc1[N+](=O)[O-] | ≥ 16 | 72.8 | 100 | 15.5 | 70.1 | 100 | 99.7 | 100 | 100 | 22.9 | 100 | 100 | 8 (≈ 20.4 µM) | 100 | 69.5 | 100 | 73.7 | ≤ 64 | 72.9 | 22 | fold change (FC) [1]: 13.78; MIC90 (Candida albicans [12]): 8 µg/mL (≈ 20.4 µM); CC50 [16]: ≥ 32 µg/mL; Activity (Vero [22]): 12.54%; Activity (Candida albicans [25]): 74.8%; Activity (Candida albicans [26]): inactive; inhibition of growth at 0.0313 µg/mL (Candida albicans [27]): 88.2%; inhibition of growth at 8 µg/mL (Candida albicans [28]): 100%; inhibition of growth at 4 µg/mL (Candida albicans [29]): 74.9%; inhibition of growth at 16 µg/mL (Candida albicans [30]): 100%; Activity (Candida albicans [31]): 40%; Activity (Candida albicans [32]): 100%
2 | NNc1ccc(S(=O)(=O)C(Cl)(Cl)Br)cc1[N+](=O)[O-] | ≥ 16 | 99.9 | 99.4 | 98.9 | 99.2 | 93 | 99.7 | 99.8 | 99.9 | 98.9 | 98.9 | 100 | 4 (≈ 10.6 µM) | 99.7 | 98.9 | 100 | 99.2 | ≤ 128 | 99.2 | 98.7 | Activity [33]: Non-Toxic; Activity (Candida albicans [34]): 63.57%; Activity (Candida albicans [35]): 40%; Activity (Vero [36]): 43.12%; MIC90 (Candida albicans [12]): 2 µg/mL (≈ 5.28 µM); CC50 [16]: ≥ 8 µg/mL; Activity (Candida albicans [37]): 100%; Activity (Candida albicans [38]): Active; fold change (FC) [39]: 1.03; inhibition of growth at 0.0313 µg/mL (Candida albicans [27]): 99.7%; inhibition of growth at 8 µg/mL (Candida albicans [28]): 99.9%; inhibition of growth at 4 µg/mL (Candida albicans [29]): 100%; Activity (Candida albicans [40]): 79%; inhibition of growth at 16 µg/mL (Candida albicans [30]): 100%; Activity (Candida albicans [41]): Active
3 | NNc1ccc(S(=O)(=O)C(F)(F)Cl)cc1[N+](=O)[O-] | ≥ 16 | 99.7 | 97.6 | 95.8 | 98.9 | 93 | 99.9 | 99.9 | 100 | 98.1 | 98.8 | 100 | 0.25 (≈ 0.829 µM) | 100 | 98.4 | 100 | 98.4 | ≤ 128 | 98.2 | 94.2 | Activity (Vero [42]): 93.43%; Activity (Candida albicans [43]): 5.88%; MIC (Candida albicans [12]): inactive; Activity (Candida albicans [44]): 83.1%; Activity (Candida albicans [26]): inactive; inhibition of growth at 0.0313 µg/mL (Candida albicans [27]): 93.8%; inhibition of growth at 8 µg/mL (Candida albicans [28]): 100%; inhibition of growth at 4 µg/mL (Candida albicans [29]): 100%; inhibition of growth at 16 µg/mL (Candida albicans [30]): 100%; Activity (Candida albicans [31]): 40%; fold change (FC) [45]: 11.76
